Assay results published in PubChem BioAssay AID1963958 (Molecular Pharmacology Branch, DTP, NCI, 2024).
Several values for one entry are separate records, joined by “and”; a condition that tells them apart may be missing. Equal entries are not always repeated.

Test system: MDA-MB-231 multicell spheroids, viability
Assay: Anticancer human tumor MDA-MB-231 cell line growth inhibition [PI3K];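 note: spheroids exposed to agents for seven days before reading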;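 for viability, T/C: percent of vehicle control luminescence with DMSO treated spheroids as 100%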
Conditions: for viability, T/C: stronger effect = lower value
Source text: Combinatorial screen of targeted agents with the PI3K inhibitors inavolisib, alpelisib, duvelisib, and copanlisib in multi-cell type tumor spheroids
A high-throughput screen of multi-cell type tumor spheroids was designed to identify active combinations of targeted small molecules and PI3K pathway inhibitors. Complex spheroids include a stromal component modeled by human endothelial cells (HUVEC) and fibroblasts modeled by human mesenchymal stem cells (MSCs). The concentration ranges selected for each drug and investigational agent were based upon clinically achievable concentrations if the clinical Cmax of the agent was known.
Compounds. The drugs and investigational agents: inavolisib (NSC800729), alpelisib (NSC765974), duvelisib (NSC772469), copanlisib (NSC816437), ipatasertib (NSC767898), afuresertib (NSC778305), talazoparib (NSC767125), sapanisertib (NSC764658), selumetinib (NSC741078), tovorafenib (DAY101, NSC766906), vemurafenib (NSC761431), ravoxertinib (NSC781343), sotorasib (NSC818433), MRTX1133 (NSC 836407), abemaciclib (NSC 768073), palbociclib (NSC758247), venetoclax (NSC 766270), SY5609 (NSC837396), enzalutamide (NSC755605), and darolutamide (NSC825331), were obtained from the National Cancer Institute (NCI) Developmental Therapeutics Program Chemical Repository. The FDA-approved anticancer drug set is available from the NCI Developmental Therapeutics Program. […] The stock solutions were prepared in dimethyl sulfoxide (DMSO, Sigma-Aldrich, St. Louis, MO, cat. D2650) at 800-fold the tested concentration and stored at -70 degrees C prior to their use. All drugs and investigational agents were tested over a range starting from a high concentration at or near the clinical Cmax and decreasing in half-log increments. If the clinical Cmax for an agent had not been determined, the highest concentration tested was 10 microM.
Cell Culture. All cells were maintained in an incubator at 37 degrees C and 5% CO2 with 95% humidity. The PDC lines were cultured according to standard operating procedures established by the NCI PDMR (https://pdmr.cancer.gov/sops/default.htm). All PDCs were thawed and cultured in Matrigel-coated flasks prepared with a working solution of 1X Ham's F-12 nutrient mix, without supplementation (Invitrogen, Waltham, MA, cat. 11765054), 100 U/mL penicillin-streptomycin (Invitrogen, cat. 15140122), and 2.5% Matrigel (Corning Inc., Corning, NY, cat. 354248) for the first three passages. The 354836-022-R-J1-PDC, 475296-252-R-J1-PDC, and 997726-040-R-J2-PDC lines were cultured in 6A media, which includes advanced DMEM/F-12 (Thermo Fisher Scientific, cat. 12634028), 10 mM HEPES (Thermo Fisher Scientific, cat. 15630080), 1X GlutaMAX supplement (Thermo Fisher Scientific, cat. 35050061), 0.1 mg/mL primocin (InvivoGen, San Diego, CA, cat. ant-pm-2), 10% defined fetal bovine serum, heat inactivated (HyClone Laboratories Inc., Logan, UT, cat. SH30070.03HI), 50% L-WRN conditioned media (ATCC, cat. CRL-3276), 1.25 mM N-Acetyl-L-cysteine (Sigma-Aldrich, cat. A9165), 10 mM nicotinamide (Sigma-Aldrich, cat. N0636), 1X B-27 supplement (Thermo Fisher Scientific, cat. 17504044), 1X N-2 supplement (Thermo Fisher Scientific, cat. 17502048), and 10 microM Y-27632 dihydrochloride (Tocris Bioscience, Bristol, United Kingdom, cat. 1254). The 624824-186-R-J2-PDC line was cultured in 6C/Colon 1B media, which includes all 6A media components plus 50 ng/mL human EGF recombinant protein (Thermo Fisher Scientific, cat. PHG0311). […]

[1] = compound alone, run of 05/08/2023

Structure (SMILES)	IC50 (curve of compound)	viability, T/C (compound 0.0316 µM)	viability, T/C (compound 0.1 µM)	viability, T/C (compound 0.316 µM)	viability, T/C (compound 3.16 µM)	viability, T/C (compound 10 µM)	viability, T/C (compound 0.00316 µM)	viability, T/C (compound 0.01 µM)	viability, T/C (compound 1 µM)	further results
CC(=O)c1c(C)c2cnc(Nc3ccc(N4CCNCC4)cn3)nc2n(C2CCCC2)c1=O	98 nM and 91.6 nM and > 100 nM	79.7% [middle of 4 runs]	49.9% [middle of 4 runs]	–	–	–	101% [middle of 4 runs]	90% [middle of 4 runs]	–	viability, T/C (compound 0.000316 µM): 105% [middle of 4 runs]; viability, T/C (compound 0.001 µM): 104% and 100% and 103% (2×)
CC(C)NCC(C(=O)N1CCN(c2ncnc3c2C(C)CC3O)CC1)c1ccc(Cl)cc1 (configuration not stated)	> 10000 nM and 8950 nM and 7840 nM	114% [middle of 4 runs]	102% [middle of 4 runs]	97.3% [middle of 4 runs]	70.9% [middle of 4 runs]	49.8% [middle of 4 runs]	–	–	87.9% [middle of 4 runs]	–
CC(Nc1ccc2c(c1)OCCn1cc(N3C(=O)OCC3C(F)F)nc1-2)C(N)=O (configuration not stated)	–	81.9% [middle of 8 runs]	72.1% [middle of 8 runs]	64.8% [middle of 8 runs]	–	–	103% [middle of 8 runs]	96.1% [middle of 8 runs]	64.2% [middle of 8 runs]	IC50 [1]: > 1000 nM
CC(Nc1ncnc2nc[nH]c12)c1cc2cccc(Cl)c2c(=O)n1-c1ccccc1 (configuration not stated)	–	105% [middle of 8 runs]	100% [middle of 8 runs]	95.5% [middle of 8 runs]	63.9% [middle of 8 runs]	50.6% [middle of 8 runs]	–	–	82.7% [middle of 8 runs]	–
CC1(C)CCC(CN2CCN(c3ccc(C(=O)NS(=O)(=O)c4ccc(NCC5CCOCC5)c([N+](=O)[O-])c4)c(Oc4cnc5[nH]ccc5c4)c3)CC2)=C(c2ccc(Cl)cc2)C1	–	108% [middle of 4 runs]	103% [middle of 4 runs]	109% [middle of 4 runs]	113% (2×) and 112% and 119%	–	–	–	113% [middle of 4 runs]	–
CCN1CCN(Cc2ccc(Nc3ncc(F)c(-c4cc(F)c5nc(C)n(C(C)C)c5c4)n3)nc2)CC1	–	87% [middle of 4 runs]	67% and 57.2% and 58.3% (2×)	56.5% and 44.8% and 49.5% (2×)	–	–	102% [middle of 4 runs]	97.1% [middle of 4 runs]	49.3% [middle of 4 runs]	–
COc1c(OCCCN2CCOCC2)ccc2c3n(c(=NC(=O)c4cnc(N)nc4)nc12)CCN3	–	61.3% [middle of 8 runs]	46.3% [middle of 8 runs]	31.6% [middle of 8 runs]	–	–	99.7% [middle of 8 runs]	79.4% [middle of 8 runs]	26% [middle of 8 runs]	IC50 (compound alone, run of 05/09/2023): 73.8 nM [middle of 8 runs]
C[C@@H](NC(=O)c1ncnc(N)c1Cl)c1ncc(C(=O)Nc2cc(C(F)(F)F)c(Cl)cn2)s1	> 10000 nM	139% [middle of 4 runs]	–	–	77.3% [middle of 4 runs]	64.8% [middle of 4 runs]	–	–	–	–
Cc1nc(NC(=O)N2CCCC2C(N)=O)sc1-c1ccnc(C(C)(C)C(F)(F)F)c1 (configuration not stated)	–	98.2% [middle of 8 runs]	88.9% [middle of 8 runs]	75.4% [middle of 8 runs]	64.6% [middle of 8 runs]	63% [middle of 7 runs]	–	–	71.2% [middle of 8 runs]	IC50 [1]: > 10000 nM

More lines, main results first:

IC50 (curve of compound)	Structure (SMILES)	viability, T/C (compound 0.0316 µM)	viability, T/C (compound 0.1 µM)	viability, T/C (compound 0.316 µM)	viability, T/C (compound 3.16 µM)	viability, T/C (compound 10 µM)	viability, T/C (compound 0.00316 µM)	viability, T/C (compound 0.01 µM)	viability, T/C (compound 1 µM)	further results
> 10000 nM	C=CC(=O)N1CCN(c2nc(=O)n(-c3c(C)ccnc3C(C)C)c3nc(-c4c(O)cccc4F)c(F)cc23)C(C)C1 (configuration not stated)	109% [middle of 4 runs]	101% [middle of 4 runs]	124% [middle of 4 runs]	136% [middle of 4 runs]	127% [middle of 4 runs]	–	–	–	–
66.7 nM [middle of 4 runs]	CC(C)n1nc(-c2ccc3oc(N)nc3c2)c2c(N)ncnc21	67.4% [middle of 4 runs]	38.8% [middle of 4 runs]	–	–	–	104% and 101% (2×) and 97.3%	84.7% [middle of 4 runs]	–	viability, T/C (compound 0.000316 µM): 107% [middle of 4 runs]; viability, T/C (compound 0.001 µM): 99.7% [middle of 4 runs]
> 10000 nM	CC(Cn1ccc(-c2ccc(C#N)c(Cl)c2)n1)NC(=O)c1cc(C(C)O)[nH]n1 (configuration not stated)	106% [middle of 4 runs]	99% [middle of 4 runs]	111% [middle of 4 runs]	100% [middle of 4 runs]	92.5% [middle of 4 runs]	–	–	107% [middle of 4 runs]	–
31.6 nM and 56.2 nM	CC1(C)CCC(Nc2ncc(C(F)(F)F)c(-c3c[nH]c4c(P(C)(C)=O)c(C#N)ccc34)n2)CN1 (configuration not stated)	44.8% [middle of 4 runs]	42.5% [middle of 4 runs]	44.1% [middle of 4 runs]	56.4% [middle of 4 runs]	5.5% [middle of 4 runs]	–	–	54.3% [middle of 4 runs]	–
5.82 µM [middle of 4 runs]	CCCS(=O)(=O)Nc1ccc(F)c(C(=O)c2c[nH]c3ncc(-c4ccc(Cl)cc4)cc23)c1F	113% [middle of 4 runs]	111% [middle of 4 runs]	104% [middle of 4 runs]	68.9% [middle of 4 runs]	34.8% [middle of 4 runs]	–	–	89.3% [middle of 4 runs]	–
> 10000 nM	CNC(=O)c1ccc(N2C(=S)N(c3ccc(C#N)c(C(F)(F)F)c3)C(=O)C2(C)C)cc1F	110% [middle of 4 runs]	111% [middle of 4 runs]	113% [middle of 4 runs]	98.3% [middle of 4 runs]	88.7% [middle of 4 runs]	–	–	107% [middle of 4 runs]	–
431 nM [middle of 4 runs]	Cn1cnc2c(F)c(Nc3ccc(Br)cc3Cl)c(C(=O)NOCCO)cc21	–	–	–	–	–	–	–	–	viability, T/C (compound 0.00949 µM): 72.7% [middle of 4 runs]; viability, T/C (compound 0.03 µM): 64.9% [middle of 4 runs]; viability, T/C (compound 0.0949 µM): 59.5% and 57.3% (2×) and 57.6%; viability, T/C (compound 0.3 µM): 53.2% [middle of 4 runs]; viability, T/C (compound 0.949 µM): 47.3% [middle of 4 runs]; viability, T/C (compound 3 µM): 34.5% [middle of 4 runs]
905 nM [middle of 4 runs]	Cn1nccc1Nc1nccc(-c2ccn(C(CO)c3ccc(Cl)c(F)c3)c(=O)c2)n1 (configuration not stated)	87% [middle of 4 runs]	70.7% [middle of 4 runs]	61.5% [middle of 4 runs]	41.8% [middle of 4 runs]	30.1% [middle of 4 runs]	–	–	50.8% and 49.5% and 49.4% (2×)	–
> 100 nM	Cn1ncnc1[C@H]1c2n[nH]c(=O)c3cc(F)cc(c23)N[C@@H]1c1ccc(F)cc1	94% [middle of 4 runs]	88.7% [middle of 4 runs]	–	–	–	95.2% [middle of 4 runs]	92.4% [middle of 4 runs]	–	viability, T/C (compound 0.000316 µM): 114% and 106% and 107% (2×)
